In patent US9661853B2, “Molecules having pesticidal utility, and intermediates, compositions, and processes, related thereto” (Dow AgroSciences LLC, priority 2015, dated 2017):

How the values were obtained:
[1] = system: Beet Armyworm (Spodoptera exigua, LAPHEG); test: Bioassay on Beet Armyworm (BAW), 128-well diet tray assay; assay type: in vivo; details: 168 h, 50 μg/cm^2 on artificial diet, second instar larvae, 25° C., five to seven days, average of eight wells, read-out: BAW % Control (or Mortality) rating
Description: (§1) Bioassays on Beet Armyworm (Spodoptera exigua, LAPHEG) (“BAW”) and Cabbage Looper (Trichoplusia ni, TRIPNI) (“CL”)
(§2) Certain molecules disclosed in this document were tested against BAW and CL using procedures described in the following examples. In the reporting of the results, the “BAW & CL Rating Table” was used (See Table Section).
Bioassays on BAW were conducted using a 128-well diet tray assay. One to five second instar BAW larvae were placed in each well (3 mL) of the diet tray that had been previously filled with 1 mL of artificial diet to which 50 μg/cm^2 of the test molecule (dissolved in 50 μL of 90:10 acetone-water mixture) had been applied (to each of eight wells) and then allowed to dry. Trays were covered with a clear self-adhesive cover, vented to allow gas exchange, and held at 25° C., 14:10 light-dark for five to seven days. Percent mortality was recorded for the larvae in each well; activity in the eight wells was then averaged. The results are indicated in the table entitled “Table ABC: Biological Results” (See Table Section).

[2] = system: Cabbage Looper (Trichoplusia ni, TRIPNI); test: Bioassay on Cabbage Looper (CL), 128-well diet tray assay; assay type: in vivo; details: 168 h, 50 μg/cm^2 on artificial diet, second instar larvae, 25° C., five to seven days, average of eight wells, read-out: CL % Control (or Mortality) rating
Description: as §1, §2
Bioassays on CL were conducted using a 128-well diet tray assay. One to five second instar CL larvae were placed in each well (3 mL) of the diet tray that had been previously filled with 1 mL of artificial diet to which 50 μg/cm^2 of the test molecule (dissolved in 50 μL of 90:10 acetone-water mixture) had been applied (to each of eight wells) and then allowed to dry. Trays were covered with a clear self-adhesive cover, vented to allow gas exchange, and held at 25° C., 14:10 light-dark for five to seven days. Percent mortality was recorded for the larvae in each well; activity in the eight wells was then averaged. The results are indicated in the table entitled “Table ABC: Biological Results” (See Table Section).

[3] = system: Yellow Fever Mosquito (Aedes aegypti, AEDSAE); assay type: in vivo; details: 4000 ppm DMSO master solution diluted, about 1 day-old larvae, room temperature, scored after 3 days
Description: Bioassays on Yellow Fever Mosquito (Aedes aegypti, AEDSAE) (“YFM”)
Certain molecules disclosed in this document were tested against YFM using procedures described in the following paragraph. In the reporting of the results, the “YFM Rating Table” was used (See Table Section).
Master plates containing 400 μg of a molecule dissolved in 100 μL of dimethyl sulfoxide (DMSO) (equivalent to a 4000 ppm solution) are used. A master plate of assembled molecules contains 15 μL per well. To this plate, 135 μL of a 90:10 water/acetone mixture is added to each well. A robot (Biomek® NXP Laboratory Automation Workstation) is programmed to dispense 15 μL aspirations from the master plate into an empty 96-well shallow plate (“daughter” plate). There are 6 reps (“daughter” plates) created per master. The created “daughter” plates are then immediately infested with YFM larvae.
The day before plates are to be treated, mosquito eggs are placed in Millipore water containing liver powder to begin hatching (4 g into 400 mL). After the “daughter” plates are created using the robot, they are infested with 220 μL of the liver powder/larval mosquito mixture (about 1 day-old larvae). After plates are infested with mosquito larvae, a non-evaporative lid is used to cover the plate to reduce drying. […] After 3 days, each well is observed and scored based on mortality. […]

| Structure (SMILES) | melting point | mortality at 50 µg/cm2 [1] [%] | mortality at 50 µg/cm2 [2] [%] | YFM % Control (or Mortality) rating [3] |
| --- | --- | --- | --- | --- |
| CCCc1ccc(C)cc1N1C(=O)CS/C1=N\C(=O)Nc1ccc(CN(C)c2ncn(-c3ccc(OC(F)(F)F)cc3)n2)cn1 | 184 °C (dec.) |  |  |  |
| CCCc1ccc(C)cc1N1C(=O)CS/C1=N\C(=O)Nc1ccc(CNc2ncn(-c3ccc(OC(F)(F)F)cc3)n2)cc1 [F3, (Z)-1-(3-(5-Methyl-2-propylphenyl)-4-oxothiazolidin-2-ylidene)-3-(4-(((1-(4-(trifluoromethoxy)phenyl)-1H-1,2,4-triazol-3-yl)amino)methyl)phenyl)urea] |  | 50 to 100 | 50 to 100 | A (80-100) |
| CCCc1ccc(C)cc1N1C(=O)CS/C1=N\C(=O)Nc1ccc(CNc2ncn(-c3ccc(OC(F)(F)F)cc3)n2)cc1F [F5, (Z)-1-(2-Fluoro-4-(((1-(4-(trifluoromethoxy)phenyl)-1H-1,2,4-triazol-3-yl)amino)methyl)phenyl)-3-(3-(5-methyl-2-propylphenyl)-4-oxothiazolidin-2-ylidene)urea] |  | 50 to 100 | 50 to 100 | A (80-100) |
